Measurements as given in patent US20140235542A1, “MODULAR, BIOACTIVE PEPTIDES FOR BINDING NATIVE BONE AND IMPROVING BONE GRAFT OSTEOINDUCTIVITY” (WISCONSIN ALUMNI RESEARCH FOUNDATION, priority 2013, published 2014).
Square brackets hold non-standard residues; d marks the D form. Ends that are not written are not given here. Gla = N[C@@H](CC(C(=O)O)C(=O)O)C(=O)O

Tests used:
hMSCs [1] = assay: Alkaline phosphatase (ALP) activity in hMSCs; type: cell-based, human; conditions: peptide bound to HA-coated film, vs untreated substrates
Method: hMSCs (Cambrex, Walkersville, Md., passages 5-6) were cultured in mesenchymal stem cell growth medium (MSCGM: Cambrex) consisting of MSC Basal Medium supplemented with 10% fetal bovine serum, L-glutamine, 100 units/ml penicillin, and 0.1 mg/ml streptomycin and grown using culture methods described elsewhere. […] The effects of soluble peptides included in culture medium were evaluated by adding 50 μg of eBGu3 or eBGa3 peptides to hMSC cultures on TCP in 500 μl of medium with or without osteogenic culture supplements. […]
The biological activity of modular peptides was initially assayed by their ability to enhance ALP activity in hMSCs. […] ALP activity was measured at 405 nm, and calculated as the ratio of p-nitrophenol released to total DNA concentration (nmol/min/ng DNA). To determine the amount of total DNA in each well, the cell nuclei were disrupted by addition of the aforementioned lysis buffer followed by centrifugation, and quantified using the CyQUANT Assay Kit (Molecular Probes, Eugene, Oreg.).

hMSCs [2] = assay: Mineralized tissue formation by hMSCs (Alizarin Red-S staining); type: cell-based, human; conditions: peptide bound to HA-coated film, vs untreated substrates
Method: hMSCs (Cambrex, Walkersville, Md., passages 5-6) were cultured in mesenchymal stem cell growth medium (MSCGM: Cambrex) consisting of MSC Basal Medium supplemented with 10% fetal bovine serum, L-glutamine, 100 units/ml penicillin, and 0.1 mg/ml streptomycin and grown using culture methods described elsewhere. 2.5×10^4 hMSCs were seeded onto either tissue culture-treated polystyrene (TCP) or four different types of experimental substrates (1 cm^2) (PLG, HA-coated PLG, eBGu3-treated HA coating, or eBGa3-treated HA coating). hMSCs were allowed to attach to each substrate overnight, then cultured in MSCGM with osteogenic culture supplements (OS) (0.1 μM dexamethasone, 50 μg/ml ascorbic acid, and 10 mM β-glycerophosphate) for 24 days. The effects of soluble peptides included in culture medium were evaluated by adding 50 μg of eBGu3 or eBGa3 peptides to hMSC cultures on TCP in 500 μl of medium with or without osteogenic culture supplements. […]
Characterization of mineralized tissue growth was performed via Alizarin Red-S (ARS) staining at day 20. […] For quantification of staining, 400 μl 10% (v/v) acetic acid was added to each well for 30 minutes with shaking. […] Aliquots (100 μl) of the supernatant were read in triplicate at 405 nm in 96-well plate reader.

KIPKASSVPTELSAISTLYLAAAAγEPRRγEVAγEL (KIPKASSVPTELSAISTLYLAAAA[Gla]PRR[Gla]VA[Gla]L-NH2; N-terminus assumed; SMILES CC[C@H](C)[C@H](NC(=O)[C@H](C)NC(=O)[C@H](CO)NC(=O)[C@H](CC(C)C)NC(=O)[C@H](CCC(=O)O)NC(=O)[C@@H](NC(=O)[C@@H]1CCCN1C(=O)[C@@H](NC(=O)[C@H](CO)NC(=O)[C@H](CO)NC(=O)[C@H](C)NC(=O)[C@H](CCCCN)NC(=O)[C@@H]1CCCN1C(=O)[C@@H](NC(=O)[C@@H](N)CCCCN)[C@@H](C)CC)C(C)C)[C@@H](C)O)C(=O)N[C@@H](CO)C(=O)N[C@H](C(=O)N[C@@H](CC(C)C)C(=O)N[C@@H](Cc1ccc(O)cc1)C(=O)N[C@@H](CC(C)C)C(=O)N[C@@H](C)C(=O)N[C@@H](C)C(=O)N[C@@H](C)C(=O)N[C@@H](C)C(=O)N[C@@H](CC(C(=O)O)C(=O)O)C(=O)N1CCC[C@H]1C(=O)N[C@@H](CCCNC(=N)N)C(=O)N[C@@H](CCCNC(=N)N)C(=O)N[C@@H](CC(C(=O)O)C(=O)O)C(=O)N[C@H](C(=O)N[C@@H](C)C(=O)N[C@@H](CC(C(=O)O)C(=O)O)C(=O)N[C@@H](CC(C)C)C(N)=O)C(C)C)[C@@H](C)O) [eBGa3]
effect of immobilized peptide on ALP activity (hMSCs [1]): significantly enhanced | effect of immobilized peptide on mineralized tissue formation (hMSCs [2]): significantly enhanced
